Measured values: ChEMBL document CHEMBL2086360, “α-Glucosidase inhibitory hydrolyzable tannins from Eugenia jambolana seeds” (J Nat Prod, 2012)
pIC50: −log10 of the molar value.

Assay: Inhibition of yeast alpha-glucosidase using p-nitrophenyl-alpha-D-glucopyranoside as substrate compound pre-incubated for 10 mins before substrate addition measured after 5 mins by microplate reader
Parameters: species or system Saccharomyces cerevisiae

Q: With `O=C(O[C@H]1[C@@H]2OC(=O)c3cc(O)c(O)c(O)c3-c3c(cc(O)c(O)c3O)C(=O)OC[C@H]2OC(O)[C@@H]1OC(=O)c1cc(O)c(O)c(O)c1Oc1cc2c(=O)oc3c(O)c(O)cc4oc(=O)c(c1O)c2c43)c1cc(O)c(O)c(O)c1` (stereo not given in full) [CORNUSSIN B] as the molecule, how does the pIC50 read?
A: Its pIC50 is 4.91.

Q: With `O=C(O[C@H]1[C@H](O)[C@@H](CO)OC(O)[C@@H]1OC(=O)c1cc(O)c(O)c(O)c1Oc1cc2c(=O)oc3c(O)c(O)cc4c(=O)oc(c1O)c2c34)c1cc(O)c(O)c(O)c1` (stereo not given in full) [OENOTHEIN C] as the molecule, how does the pIC50 read?
A: Its pIC50 is 4.12.

Q: With `COc1cc2oc(-c3ccc(O)cc3)cc(=O)c2c(O)c1[C@@H]1O[C@H](CO)[C@@H](O)[C@H](O)[C@H]1O` [SWERTISIN] as the molecule, how does the pIC50 read?
A: The pIC50 was 3.83.

Q: With `C[C@H]1O[C@H](O[C@H]2[C@H](O)[C@@H](O)[C@@H](O[C@H]3[C@H](O)[C@@H](O)C(O)O[C@@H]3CO)O[C@@H]2CO)[C@H](O)[C@@H](O)[C@@H]1N[C@H]1C=C(CO)[C@@H](O)[C@H](O)[C@H]1O` (stereo not given in full) [ACARBOSE] as the molecule, how does the pIC50 read?
A: The pIC50 was 3.68.

Q: With `O=C(O[C@H]1[C@H](O)[C@@H](CO)OC(O)[C@@H]1OC(=O)c1cc(O)c(O)c(O)c1Oc1c(O)cc2c(=O)oc3c(O)c(O)cc4c(=O)oc1c2c34)c1cc(O)c(O)c(O)c1` (mixture of isomers) as the molecule, how does the pIC50 read?
A: The pIC50 was 5.09.
